Results taken from ChEMBL document CHEMBL1201862, “PubChem BioAssay data set” (2004).
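Growth conditions: 96-well plates. Treatment: test compound, 48 hours, 5 concentrations. Analysis: linear interpolation between bracketing concentrations; unreached endpoints set to highest concentration. Here, GI50 denotes the concentration required for 50% inhibition of growth.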 Activity calls are given as the source filed them. No stated cut-off is given here; in the data, active = GI50 up to about 1.1 µM and inactive = higher.

Experiments:
Test in all cases: growth of human tumour cells (NCI), 48 h
A549 = system: A549
NCI-H23 = system: NCI-H23
786-0 = system: 786-0
NCI-H522 = system: NCI-H522
A498 = system: A498
SK-MEL-5 = system: SK-MEL-5
MDA-N = system: MDA-N
U-251 = system: U-251
T47D = system: T47D
UACC-62 = system: UACC-62
KM12 = system: KM12
UO-31 = system: UO-31
NCI-H226 = system: NCI-H226
ACHN = system: ACHN
OVCAR-8 = system: OVCAR-8
SF-539 = system: SF-539
RXF 393 = system: RXF 393
IGROV-1 = system: IGROV-1
OVCAR-3 = system: OVCAR-3

| SMILES | GI50 (A549) | GI50 (NCI-H23) | GI50 (786-0) | GI50 (NCI-H522) | GI50 (A498) | GI50 (SK-MEL-5) | GI50 (MDA-N) | GI50 (U-251) | GI50 (T47D) | GI50 (UACC-62) | GI50 (KM12) | GI50 (UO-31) | GI50 (NCI-H226) | GI50 (ACHN) | GI50 (OVCAR-8) | GI50 (SF-539) | GI50 (RXF 393) | GI50 (IGROV-1) | GI50 (OVCAR-3) |
| --- | --- | --- | --- | --- | --- | --- | --- | --- | --- | --- | --- | --- | --- | --- | --- | --- | --- | --- | --- |
| COc1cc(OC)cc(-n2c(N)c(-c3nc4ccccc4n3C)c3ccc([N+](=O)[O-])cc3c2=O)c1 | > 100 µM (inactive) | > 100 µM (inactive) | 64.7 µM (inactive) | 55.8 µM (inactive) | > 100 µM (inactive) | > 100 µM (inactive) | > 100 µM (inactive) | 46.8 µM (inactive) | > 100 µM (inactive) | > 100 µM (inactive) | 35.6 µM (inactive) | > 100 µM (inactive) | 70.6 µM (inactive) | 83.4 µM (inactive) | 32 µM (inactive) | – | – | – | – |
| CCOC(=O)C(NC(=O)Nc1ccc(Cl)cc1)(OC)C(F)(F)F (stereo not drawn) | 8.49 µM (inactive) | 37.9 µM (inactive) | 13.8 µM (inactive) | – | 14 µM (inactive) | 15.1 µM (inactive) | 3.12 µM (inactive) | 52.5 µM (inactive) | 70 µM (inactive) | – | – | 5.75 µM (inactive) | – | 0.757 µM (active) | 49.3 µM (inactive) | 19.7 µM (inactive) | > 100 µM (inactive) | > 100 µM (inactive) | – |
| COc1nc2ncc([C@@H](OC(C)=O)[C@@H](COC(C)=O)OC(C)=O)nc2c(=O)[nH]1 | > 100 µM (inactive) | – | > 100 µM (inactive) | – | > 100 µM (inactive) | > 100 µM (inactive) | > 100 µM (inactive) | > 100 µM (inactive) | > 100 µM (inactive) | > 100 µM (inactive) | > 100 µM (inactive) | > 100 µM (inactive) | 51.5 µM (inactive) | > 100 µM (inactive) | > 100 µM (inactive) | > 100 µM (inactive) | > 100 µM (inactive) | > 100 µM (inactive) | > 100 µM (inactive) |
| CCNC12CCC(C1)C(C)(C)C2=O (stereo not drawn) | > 100 µM (inactive) | > 100 µM (inactive) | > 100 µM (inactive) | – | > 100 µM (inactive) | > 100 µM (inactive) | > 100 µM (inactive) | > 100 µM (inactive) | > 100 µM (inactive) | > 100 µM (inactive) | > 100 µM (inactive) | > 100 µM (inactive) | > 100 µM (inactive) | > 100 µM (inactive) | > 100 µM (inactive) | – | > 100 µM (inactive) | > 100 µM (inactive) | > 100 µM (inactive) |
| CC1CC/C(=C\c2ccc(F)cc2)C2=C1C(c1ccc(F)cc1)N1C(=O)CSC1=N2 (stereo not drawn) | – | 58.5 µM (inactive) | > 100 µM (inactive) | – | 57 µM (inactive) | 40 µM (inactive) | > 100 µM (inactive) | 93.3 µM (inactive) | 45.1 µM (inactive) | > 100 µM (inactive) | 35.7 µM (inactive) | 87.9 µM (inactive) | 53 µM (inactive) | > 100 µM (inactive) | 69.7 µM (inactive) | > 100 µM (inactive) | 21.7 µM (inactive) | 9.23 µM (inactive) | > 100 µM (inactive) |
| Cc1ccc(S(=O)(=O)N2CCCN(S(=O)(=O)c3ccc(C)cc3)CCN(S(=O)(=O)c3ccc(C)cc3)CCCSCC2)cc1 | > 100 µM (inactive) | > 100 µM (inactive) | 45.2 µM (inactive) | – | > 100 µM (inactive) | > 100 µM (inactive) | > 100 µM (inactive) | 76.7 µM (inactive) | > 100 µM (inactive) | > 100 µM (inactive) | – | > 100 µM (inactive) | > 100 µM (inactive) | > 100 µM (inactive) | > 100 µM (inactive) | > 100 µM (inactive) | > 100 µM (inactive) | > 100 µM (inactive) | > 100 µM (inactive) |
| N#C/C(C(=O)Nc1ccccc1)=C(/N)N1CCCCC1 | > 100 µM (inactive) | > 100 µM (inactive) | > 100 µM (inactive) | – | – | > 100 µM (inactive) | > 100 µM (inactive) | > 100 µM (inactive) | > 100 µM (inactive) | 95.7 µM (inactive) | > 100 µM (inactive) | 67.3 µM (inactive) | > 100 µM (inactive) | > 100 µM (inactive) | > 100 µM (inactive) | > 100 µM (inactive) | – | 91 µM (inactive) | > 100 µM (inactive) |
| COC(O)C(=O)c1ccc2c(c1)CC1(C2)Cc2cc3c(cc2C1=O)CCC3 (stereo not drawn) | 20.2 µM (inactive) | 24.5 µM (inactive) | 17.6 µM (inactive) | 19 µM (inactive) | 18.7 µM (inactive) | 16 µM (inactive) | 19.9 µM (inactive) | 18.4 µM (inactive) | 19.2 µM (inactive) | 17.9 µM (inactive) | 20.9 µM (inactive) | 16.9 µM (inactive) | 19.5 µM (inactive) | 17 µM (inactive) | > 10 µM (inactive) | 18.1 µM (inactive) | – | 16.1 µM (inactive) | 18.9 µM (inactive) |
| CCCCN1/C(=N/Nc2n[nH]c(=O)c3ccccc23)SCC1c1ccc(Cl)cc1 (stereo not drawn) | 5.26 µM (inactive) | 1.64 µM (inactive) | 20 µM (inactive) | 11.8 µM (inactive) | 3.47 µM (inactive) | 3.55 µM (inactive) | – | 4.92 µM (inactive) | 4.29 µM (inactive) | 7.31 µM (inactive) | 5.01 µM (inactive) | 18.7 µM (inactive) | 10.4 µM (inactive) | 25.3 µM (inactive) | 15.4 µM (inactive) | 12.7 µM (inactive) | 20.1 µM (inactive) | 6.43 µM (inactive) | 15 µM (inactive) |
| O=C(NNc1nc(-c2ccccc2)cs1)C(F)(F)F | 39.2 µM (inactive) | 34 µM (inactive) | > 100 µM (inactive) | 35.7 µM (inactive) | 37.1 µM (inactive) | 35.3 µM (inactive) | – | 26.3 µM (inactive) | 23.9 µM (inactive) | 58.7 µM (inactive) | 30.1 µM (inactive) | 3.3 µM (inactive) | 20.5 µM (inactive) | 29.2 µM (inactive) | 33.4 µM (inactive) | – | 75 µM (inactive) | 20.2 µM (inactive) | – |
| O=C1CCC2(c3ccc(F)cc3)Nc3ncncc3N12 (stereo not drawn) | > 10 µM (inactive) | > 10 µM (inactive) | > 10 µM (inactive) | > 10 µM (inactive) | – | – | > 10 µM (inactive) | > 10 µM (inactive) | – | > 10 µM (inactive) | > 10 µM (inactive) | > 10 µM (inactive) | > 10 µM (inactive) | > 10 µM (inactive) | > 10 µM (inactive) | > 10 µM (inactive) | – | > 10 µM (inactive) | > 10 µM (inactive) |
| O=C1CSC(c2cccc(Cl)c2)N1c1ccc(-c2ccc(-n3c(-c4ccccc4)nc4ccccc4c3=O)cc2)cc1 (stereo not drawn) | 54.2 µM (inactive) | 58.5 µM (inactive) | 43.6 µM (inactive) | 41.6 µM (inactive) | > 100 µM (inactive) | 25.5 µM (inactive) | 47.9 µM (inactive) | 52.1 µM (inactive) | 24.3 µM (inactive) | 31.4 µM (inactive) | 22.3 µM (inactive) | 21.6 µM (inactive) | 67 µM (inactive) | 45.8 µM (inactive) | 46.1 µM (inactive) | 72.3 µM (inactive) | – | 77.4 µM (inactive) | 36 µM (inactive) |
